Assays:
[1] = biological target: Mitogen-activated protein kinase 14 (Homo sapiens) (UniProt Q16539); experiment: Inhibition of human truncated p38 alpha expressed in Escherichia coli cell assessed as substrate phosphorylation using fluorescence-labelled peptides as substrate at 95 uM after 90 mins by microfluidic peptide phosphorylation assay
[2] = biological target: Calcium/calmodulin-dependent protein kinase type II subunit gamma (Homo sapiens) (UniProt Q13555); experiment: Inhibition of human CAMK2 gamma catalytic domain expressed in baculovirus assessed as substrate phosphorylation using fluorescence-labelled peptides as substrate at 95 uM after 90 mins by microfluidic peptide phosphorylation assay
[3] = biological target: MAP kinase-activated protein kinase 2 (Homo sapiens) (UniProt P49137); experiment: Inhibition of human full length MAPKAPK2 expressed in baculovirus assessed as substrate phosphorylation using fluorescence-labelled peptides as substrate at 0.2 uM after 90 mins by microfluidic peptide phosphorylation assay
[4] = biological target: Insulin-like growth factor 1 receptor (Homo sapiens) (UniProt P08069); experiment: Inhibition of human IGF1R catalytic domain expressed in baculovirus assessed as substrate phosphorylation using fluorescence-labelled peptides as substrate at 8 uM after 90 mins by microfluidic peptide phosphorylation assay
[5] = biological target: Ribosomal protein S6 kinase alpha-2 (Homo sapiens) (UniProt Q15349); experiment: Inhibition of human full length RSK3 expressed in baculovirus assessed as substrate phosphorylation using fluorescence-labelled peptides as substrate at 8 uM after 90 mins by microfluidic peptide phosphorylation assay
[6] = biological target: T1, Cytoplasmic tyrosine-protein kinase BMX (Homo sapiens) (UniProt P51813); experiment: Inhibition of human full length BMX expressed in baculovirus assessed as substrate phosphorylation using fluorescence-labelled peptides as substrate at 2 uM after 90 mins by microfluidic peptide phosphorylation assay
T1 sequence (whole entry): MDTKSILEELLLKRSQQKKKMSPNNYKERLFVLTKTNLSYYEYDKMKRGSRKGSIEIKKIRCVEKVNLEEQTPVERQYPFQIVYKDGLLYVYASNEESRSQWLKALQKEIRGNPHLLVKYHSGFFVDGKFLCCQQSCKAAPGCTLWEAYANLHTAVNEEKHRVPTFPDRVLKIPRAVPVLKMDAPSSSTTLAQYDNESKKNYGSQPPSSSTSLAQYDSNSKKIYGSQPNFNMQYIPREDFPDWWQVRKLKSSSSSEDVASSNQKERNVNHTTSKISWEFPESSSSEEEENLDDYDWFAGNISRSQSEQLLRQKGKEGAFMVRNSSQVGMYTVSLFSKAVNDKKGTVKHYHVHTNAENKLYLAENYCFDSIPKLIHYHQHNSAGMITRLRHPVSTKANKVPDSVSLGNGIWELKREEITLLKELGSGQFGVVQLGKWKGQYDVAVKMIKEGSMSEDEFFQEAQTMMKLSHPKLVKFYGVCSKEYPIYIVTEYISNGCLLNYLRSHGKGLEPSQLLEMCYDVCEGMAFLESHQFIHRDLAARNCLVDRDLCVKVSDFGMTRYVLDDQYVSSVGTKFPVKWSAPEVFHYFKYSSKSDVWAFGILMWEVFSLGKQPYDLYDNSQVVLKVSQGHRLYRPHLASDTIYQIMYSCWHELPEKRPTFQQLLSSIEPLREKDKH

[7] = biological target: T2, Protein kinase C zeta type (Homo sapiens) (UniProt Q05513); experiment: Inhibition of human full length PKC zeta expressed in baculovirus assessed as substrate phosphorylation using fluorescence-labelled peptides as substrate at 2 uM after 90 mins by microfluidic peptide phosphorylation assay
T2 sequence (whole entry): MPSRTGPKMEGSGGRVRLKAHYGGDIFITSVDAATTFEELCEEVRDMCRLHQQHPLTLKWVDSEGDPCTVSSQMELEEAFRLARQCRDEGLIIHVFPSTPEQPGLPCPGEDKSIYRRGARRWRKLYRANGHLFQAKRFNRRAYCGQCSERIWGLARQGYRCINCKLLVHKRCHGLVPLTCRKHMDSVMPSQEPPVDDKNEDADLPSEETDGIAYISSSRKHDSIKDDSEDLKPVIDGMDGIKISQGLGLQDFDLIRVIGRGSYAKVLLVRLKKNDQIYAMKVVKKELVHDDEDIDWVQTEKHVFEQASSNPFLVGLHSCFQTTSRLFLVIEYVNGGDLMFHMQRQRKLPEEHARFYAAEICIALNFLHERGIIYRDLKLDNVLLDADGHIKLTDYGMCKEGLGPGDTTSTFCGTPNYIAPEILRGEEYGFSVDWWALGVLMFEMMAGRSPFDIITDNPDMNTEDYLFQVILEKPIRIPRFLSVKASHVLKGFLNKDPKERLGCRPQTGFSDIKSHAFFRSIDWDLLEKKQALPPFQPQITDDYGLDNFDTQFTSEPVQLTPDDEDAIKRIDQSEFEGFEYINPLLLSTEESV

[8] = biological target: Ribosomal protein S6 kinase alpha-4 (Homo sapiens) (UniProt O75676); experiment: Inhibition of human full length MSK2 expressed in baculovirus assessed as substrate phosphorylation using fluorescence-labelled peptides as substrate at 1000 uM after 90 mins by microfluidic peptide phosphorylation assay
[9] = biological target: T1, Cytoplasmic tyrosine-protein kinase BMX (Homo sapiens); experiment: Inhibition of human full length BMX expressed in baculovirus assessed as substrate phosphorylation using fluorescence-labelled peptides as substrate at 1000 uM after 90 mins by microfluidic peptide phosphorylation assay
[10] = biological target: Serine/threonine-protein kinase MARK1 (Homo sapiens) (UniProt Q9P0L2); conditions: 0.1 uM
Description: Inhibition of human full length MARK1 expressed in baculovirus assessed as substrate phosphorylation using fluorescence-labelled peptides as substrate at 0.1 uM after 90 mins by microfluidic peptide phosphorylation assay

[11] = biological target: Ribosomal protein S6 kinase alpha-5 (Homo sapiens) (UniProt O75582); experiment: Inhibition of human full length MSK1 expressed in baculovirus assessed as substrate phosphorylation using fluorescence-labelled peptides as substrate at 0.1 uM after 90 mins by microfluidic peptide phosphorylation assay
[12] = biological target: MAP kinase p38 (Homo sapiens) (UniProt O15264+Q15759+Q16539+P53778); experiment: Inhibition of human full length p38 beta2 expressed in Escherichia coli cell assessed as substrate phosphorylation using fluorescence-labelled peptides as substrate at […] after 90 mins by microfluidic peptide phosphorylation assay
[13] = biological target: Serine/threonine-protein kinase MARK2 (Homo sapiens) (UniProt Q7KZI7); experiment: Inhibition of human full length MARK2 expressed in baculovirus assessed as substrate phosphorylation using fluorescence-labelled peptides as substrate at 9 uM after 90 mins by microfluidic peptide phosphorylation assay
[14] = biological target: Vascular endothelial growth factor receptor 2 (Homo sapiens) (UniProt P35968); experiment: Inhibition of human KDR cytoplasmic domain expressed in baculovirus assessed as substrate phosphorylation using fluorescence-labelled peptides as substrate at 9 uM after 90 mins by microfluidic peptide phosphorylation assay
[15] = biological target: Receptor-type tyrosine-protein kinase FLT3 (Homo sapiens) (UniProt P36888); experiment: Inhibition of human FLT3 catalytic domain expressed in baculovirus assessed as substrate phosphorylation using fluorescence-labelled peptides as substrate at 9 uM after 90 mins by microfluidic peptide phosphorylation assay
[16] = biological target: T1, Cytoplasmic tyrosine-protein kinase BMX (Homo sapiens); experiment: Inhibition of human full length BMX expressed in baculovirus assessed as substrate phosphorylation using fluorescence-labelled peptides as substrate at 9 uM after 90 mins by microfluidic peptide phosphorylation assay
[17] = biological target: Ribosomal protein S6 kinase alpha-3 (Homo sapiens) (UniProt P51812); experiment: Inhibition of human full length RSK2 expressed in baculovirus assessed as substrate phosphorylation using fluorescence-labelled peptides as substrate at 70 uM after 90 mins by microfluidic peptide phosphorylation assay
Sequence of Ribosomal protein S6 kinase alpha-3 (Homo sapiens) (P51812 whole entry): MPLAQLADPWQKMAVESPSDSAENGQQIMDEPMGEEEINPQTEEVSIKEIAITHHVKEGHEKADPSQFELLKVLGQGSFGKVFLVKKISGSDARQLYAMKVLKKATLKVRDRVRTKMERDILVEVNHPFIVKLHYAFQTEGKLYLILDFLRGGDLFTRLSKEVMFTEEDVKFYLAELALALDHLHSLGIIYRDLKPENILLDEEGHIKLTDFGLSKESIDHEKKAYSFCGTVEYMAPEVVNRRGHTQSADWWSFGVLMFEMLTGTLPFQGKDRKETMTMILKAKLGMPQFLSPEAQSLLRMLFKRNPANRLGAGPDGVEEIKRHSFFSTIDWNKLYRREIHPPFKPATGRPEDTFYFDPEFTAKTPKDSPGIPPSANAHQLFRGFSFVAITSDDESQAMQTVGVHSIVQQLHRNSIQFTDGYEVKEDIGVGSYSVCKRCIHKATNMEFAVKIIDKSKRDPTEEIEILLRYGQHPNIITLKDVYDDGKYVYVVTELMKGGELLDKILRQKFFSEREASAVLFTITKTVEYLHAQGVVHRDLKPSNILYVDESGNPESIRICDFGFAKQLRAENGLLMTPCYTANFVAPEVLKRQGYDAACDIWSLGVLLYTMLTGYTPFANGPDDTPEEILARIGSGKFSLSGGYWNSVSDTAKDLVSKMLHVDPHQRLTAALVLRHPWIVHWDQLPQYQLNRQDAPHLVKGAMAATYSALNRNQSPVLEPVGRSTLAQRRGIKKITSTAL

Sequence of MAP kinase-activated protein kinase 2 (Homo sapiens) (P49137 whole entry, looked up, the tested form may be a part): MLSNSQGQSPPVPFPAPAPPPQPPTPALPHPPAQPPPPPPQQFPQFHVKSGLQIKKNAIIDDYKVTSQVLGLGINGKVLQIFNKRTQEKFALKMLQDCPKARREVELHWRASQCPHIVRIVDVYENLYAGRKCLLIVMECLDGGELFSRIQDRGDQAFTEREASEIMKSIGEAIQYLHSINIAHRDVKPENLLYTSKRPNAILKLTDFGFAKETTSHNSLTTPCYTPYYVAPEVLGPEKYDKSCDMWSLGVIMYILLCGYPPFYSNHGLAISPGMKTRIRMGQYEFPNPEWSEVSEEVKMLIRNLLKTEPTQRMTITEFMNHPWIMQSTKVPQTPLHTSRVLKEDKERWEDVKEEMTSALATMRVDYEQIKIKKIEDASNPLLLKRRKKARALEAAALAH
Sequence of Ribosomal protein S6 kinase alpha-5 (Homo sapiens) (O75582 whole entry, looked up): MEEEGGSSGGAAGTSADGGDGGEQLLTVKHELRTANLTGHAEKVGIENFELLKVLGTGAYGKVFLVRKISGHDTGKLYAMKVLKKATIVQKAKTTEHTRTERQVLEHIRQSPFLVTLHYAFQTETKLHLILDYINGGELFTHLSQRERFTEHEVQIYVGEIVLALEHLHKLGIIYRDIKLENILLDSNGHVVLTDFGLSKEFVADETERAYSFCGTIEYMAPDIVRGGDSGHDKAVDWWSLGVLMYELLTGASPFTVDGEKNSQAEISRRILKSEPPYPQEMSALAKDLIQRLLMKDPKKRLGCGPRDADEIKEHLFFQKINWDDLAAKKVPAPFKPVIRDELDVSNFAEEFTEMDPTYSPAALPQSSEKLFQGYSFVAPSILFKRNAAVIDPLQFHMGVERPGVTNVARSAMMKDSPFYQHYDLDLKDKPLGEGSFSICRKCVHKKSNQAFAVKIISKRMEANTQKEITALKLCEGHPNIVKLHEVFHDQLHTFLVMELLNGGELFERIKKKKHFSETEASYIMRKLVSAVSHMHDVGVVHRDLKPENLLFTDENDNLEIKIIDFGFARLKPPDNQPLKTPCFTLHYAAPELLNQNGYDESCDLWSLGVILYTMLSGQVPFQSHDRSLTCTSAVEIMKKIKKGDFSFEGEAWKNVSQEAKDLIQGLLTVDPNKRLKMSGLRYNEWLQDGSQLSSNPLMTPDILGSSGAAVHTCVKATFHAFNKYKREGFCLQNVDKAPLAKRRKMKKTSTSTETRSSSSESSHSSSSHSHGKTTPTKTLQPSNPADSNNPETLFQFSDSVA
Sequence of Vascular endothelial growth factor receptor 2 (Homo sapiens) (P35968 whole entry, the tested form may be a part): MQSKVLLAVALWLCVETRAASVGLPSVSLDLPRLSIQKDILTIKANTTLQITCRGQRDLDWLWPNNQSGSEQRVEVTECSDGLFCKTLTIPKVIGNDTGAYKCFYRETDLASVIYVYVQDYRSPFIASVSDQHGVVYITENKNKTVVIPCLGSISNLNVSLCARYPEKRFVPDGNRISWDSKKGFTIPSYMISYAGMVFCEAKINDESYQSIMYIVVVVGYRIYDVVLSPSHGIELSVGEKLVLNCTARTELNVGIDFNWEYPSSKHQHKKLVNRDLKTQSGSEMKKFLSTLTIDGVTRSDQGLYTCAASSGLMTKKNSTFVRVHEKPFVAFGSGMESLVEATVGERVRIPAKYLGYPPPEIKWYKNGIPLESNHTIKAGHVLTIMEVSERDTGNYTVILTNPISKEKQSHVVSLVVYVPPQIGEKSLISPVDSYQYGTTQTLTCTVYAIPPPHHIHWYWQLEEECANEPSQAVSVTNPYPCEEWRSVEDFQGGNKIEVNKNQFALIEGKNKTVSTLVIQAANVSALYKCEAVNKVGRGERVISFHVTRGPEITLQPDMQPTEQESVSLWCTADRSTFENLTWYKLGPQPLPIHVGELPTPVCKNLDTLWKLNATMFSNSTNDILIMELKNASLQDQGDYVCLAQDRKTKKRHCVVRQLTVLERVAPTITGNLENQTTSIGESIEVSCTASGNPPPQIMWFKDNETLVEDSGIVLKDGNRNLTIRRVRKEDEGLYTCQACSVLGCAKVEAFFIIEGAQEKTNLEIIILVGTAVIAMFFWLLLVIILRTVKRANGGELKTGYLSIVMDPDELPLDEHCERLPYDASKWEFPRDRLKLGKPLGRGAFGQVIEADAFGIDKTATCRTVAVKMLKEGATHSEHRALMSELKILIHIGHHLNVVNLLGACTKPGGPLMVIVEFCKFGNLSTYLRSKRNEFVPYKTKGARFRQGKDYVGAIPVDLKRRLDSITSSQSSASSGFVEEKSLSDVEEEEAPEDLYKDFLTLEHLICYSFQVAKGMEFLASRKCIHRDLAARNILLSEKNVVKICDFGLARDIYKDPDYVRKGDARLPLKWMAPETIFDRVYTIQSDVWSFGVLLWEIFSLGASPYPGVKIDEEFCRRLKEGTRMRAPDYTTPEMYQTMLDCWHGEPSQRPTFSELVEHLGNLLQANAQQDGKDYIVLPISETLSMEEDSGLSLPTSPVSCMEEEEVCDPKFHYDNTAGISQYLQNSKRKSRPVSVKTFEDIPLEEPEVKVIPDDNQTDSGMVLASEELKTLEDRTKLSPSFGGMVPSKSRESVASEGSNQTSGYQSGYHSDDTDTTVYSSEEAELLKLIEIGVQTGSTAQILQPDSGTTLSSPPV
Sequence of Receptor-type tyrosine-protein kinase FLT3 (Homo sapiens) (P36888 whole entry, the tested form may be a part): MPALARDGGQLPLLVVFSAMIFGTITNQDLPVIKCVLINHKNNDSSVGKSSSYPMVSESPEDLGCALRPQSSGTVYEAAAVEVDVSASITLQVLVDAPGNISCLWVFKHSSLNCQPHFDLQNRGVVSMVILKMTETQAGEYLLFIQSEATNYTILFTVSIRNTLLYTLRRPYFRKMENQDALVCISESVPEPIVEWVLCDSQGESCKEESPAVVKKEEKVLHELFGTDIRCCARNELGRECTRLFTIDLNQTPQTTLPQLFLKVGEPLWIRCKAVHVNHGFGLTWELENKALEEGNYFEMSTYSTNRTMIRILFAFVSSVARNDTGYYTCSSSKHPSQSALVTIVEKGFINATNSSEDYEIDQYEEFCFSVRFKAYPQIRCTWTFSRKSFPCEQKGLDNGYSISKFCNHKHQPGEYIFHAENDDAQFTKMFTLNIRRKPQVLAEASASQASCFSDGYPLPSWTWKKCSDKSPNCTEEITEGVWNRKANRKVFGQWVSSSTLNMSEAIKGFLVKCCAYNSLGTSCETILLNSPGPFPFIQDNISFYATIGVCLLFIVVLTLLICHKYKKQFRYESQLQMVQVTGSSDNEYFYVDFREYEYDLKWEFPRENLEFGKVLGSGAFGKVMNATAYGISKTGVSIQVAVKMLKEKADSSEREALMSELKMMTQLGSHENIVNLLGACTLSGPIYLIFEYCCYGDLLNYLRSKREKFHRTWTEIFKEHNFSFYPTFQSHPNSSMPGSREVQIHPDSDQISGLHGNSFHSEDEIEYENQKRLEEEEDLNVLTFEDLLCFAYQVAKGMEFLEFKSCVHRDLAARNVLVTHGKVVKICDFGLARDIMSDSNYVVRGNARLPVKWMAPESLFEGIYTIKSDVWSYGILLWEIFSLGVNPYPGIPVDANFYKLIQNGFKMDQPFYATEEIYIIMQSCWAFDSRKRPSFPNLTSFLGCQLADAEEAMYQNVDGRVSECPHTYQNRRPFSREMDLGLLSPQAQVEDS
Sequence of Serine/threonine-protein kinase MARK1 (Homo sapiens) (Q9P0L2 whole entry, looked up): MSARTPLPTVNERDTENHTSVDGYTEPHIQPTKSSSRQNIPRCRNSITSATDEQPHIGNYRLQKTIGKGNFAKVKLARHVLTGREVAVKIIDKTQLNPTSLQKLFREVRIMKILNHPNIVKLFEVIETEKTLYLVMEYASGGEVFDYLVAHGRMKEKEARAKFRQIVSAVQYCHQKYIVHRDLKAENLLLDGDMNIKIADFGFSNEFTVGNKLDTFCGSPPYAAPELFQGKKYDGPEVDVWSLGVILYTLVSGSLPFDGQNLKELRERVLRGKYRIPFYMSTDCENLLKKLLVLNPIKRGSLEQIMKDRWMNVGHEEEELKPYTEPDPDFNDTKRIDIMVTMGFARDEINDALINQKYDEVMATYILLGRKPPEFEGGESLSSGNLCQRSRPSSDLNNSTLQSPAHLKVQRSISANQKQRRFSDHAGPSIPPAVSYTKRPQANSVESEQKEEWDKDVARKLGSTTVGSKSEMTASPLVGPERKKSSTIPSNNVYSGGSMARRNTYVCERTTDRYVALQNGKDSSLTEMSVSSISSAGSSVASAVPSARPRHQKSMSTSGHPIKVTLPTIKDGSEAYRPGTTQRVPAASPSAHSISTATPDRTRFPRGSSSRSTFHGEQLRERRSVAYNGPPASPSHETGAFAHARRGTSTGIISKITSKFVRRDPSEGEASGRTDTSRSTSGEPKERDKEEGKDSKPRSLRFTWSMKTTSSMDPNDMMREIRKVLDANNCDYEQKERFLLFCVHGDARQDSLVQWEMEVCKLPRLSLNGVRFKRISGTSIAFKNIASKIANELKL

With `NCCc1ccc(-c2ncnc3[nH]cnc23)cc1` the inhibition [1] was 6.5% and the inhibition [2] was 30%.

Work on `Clc1ccc(C2(c3ccc(-c4ncnc5[nH]cnc45)cc3)CCNCC2)cc1` yielded an inhibition [3] of 10.5%.

Work on `NCC1CCN(c2ncnc3[nH]ccc23)CC1` yielded an inhibition [4] of 30% and an inhibition [5] of 28%.

In the case of `NC1CCN(c2ncnc3[nH]ccc23)CC1`, the inhibition [6] is reported as 2% and the inhibition [7] is reported as 20.5%.

For `c1cnc2[nH]ccc2c1`, the inhibition [8] was 81% and the inhibition [9] was 22%.

With `C[C@H](CN(C)C)Oc1nc(Nc2cc3cccc(Cl)c3cn2)cnc1C#N` the inhibition [10] was 0% and the inhibition [11] was 0.5%.

`COC(=O)c1cnc(Nc2cnc(C#N)cn2)cc1NCC1CCNCC1` showed an inhibition [12] of 1%.

Molecule `NCC1CN(c2ncnc3[nH]c4cnccc4c23)CCO1` (configuration not stated) has an inhibition [13] of 73%, an inhibition [14] of 63.5% and an inhibition [15] of 89.5%. It also gave an inhibition [16] of 11%.

Molecule `CNCc1ccc(-c2ncnc3[nH]cnc23)cc1` has an inhibition [17] of 75%.
